Measurements from patent US20130217664A1, “NOVEL COMPOUNDS USEFUL FOR THE TREATMENT OF DEGENERATIVE AND INFLAMMATORY DISEASES” (priority 2012, published 2013).

Molecular target: T1, human JAK1 (Homo sapiens, UniProt P23458)
T1 construct: catalytic domain, amino acids 866-1154; catalog number PV4774; purchased Invitrogen PV4774
Experiment: JAK1 inhibition assay (polyGT substrate / Ulight-JAK1 peptide)
Assay type: biochemical
Details: recombinant human JAK1 catalytic domain; polyGT or Ulight-JAK1 peptide assay
Description: 1.1 JAK1 Inhibition Assay
1.1.1 JAK1 Assay polyGT Substrate
After 45 min at 30° C., reactions are stopped by adding of 25 μL/well of 150 mM phosphoric acid. […] Plates are washed 6 times with 300 μL per well of a 75 mM phosphoric acid solution and the bottom of the plates is sealed. 40 μL/well of Microscint-20 is added, the top of the plates is sealed and readout is performed using the Topcount (Perkin Elmer). Kinase activity is calculated by subtracting counts per min (cpm) obtained in the presence of a positive control inhibitor (10 μM staurosporine) from cpm obtained in the presence of vehicle. The ability of a test compound to inhibit this activity is determined as:
Percentage inhibition=((cpm determined for sample with test compound present−cpm determined for sample with positive control inhibitor)divided by(cpm determined in the presence of vehicle−cpm determined for sample with positive control inhibitor))*100.
Dose dilution series are prepared for the compounds enabling the testing of dose-response effects in the JAK1 assay and the calculation of the IC50 for each compound.
1.1.2 JAK1 Ulight-JAK1 Peptide Assay
After 60 min at room temperature, reactions were stopped by adding 20 μL/well of detection mixture (1× detection buffer (Perkin Elmer, catalog number CR97-100C), 0.5 nM Europium-anti-phosphotyrosine (PT66) (Perkin Elmer, catalog number AD0068), 10 mM EDTA). […] Kinase activity was calculated by subtracting relative fluorescence units (RFU) obtained in the presence of a positive control inhibitor (10 μM staurosporine) from RFU obtained in the presence of vehicle. The ability of a test compound to inhibit this activity was determined as:
Percentage inhibition=((RFU determined for sample with test compound present−RFU determined for sample with positive control inhibitor)divided by(RFU determined in the presence of vehicle−RFU determined for sample with positive control inhibitor))*100.
Dose dilution series were prepared for the compounds enabling the testing of dose-response effects in the JAK1 assay and the calculation of the IC50 for the compound. Each compound is routinely tested at concentration of 20 μM followed by a 1/5 serial dilution, 10 points in a final concentration of 1% DMSO. […] The data are expressed as the average IC50 from the assays±standard error of the mean.

T1 sequence (P23458 866-1154): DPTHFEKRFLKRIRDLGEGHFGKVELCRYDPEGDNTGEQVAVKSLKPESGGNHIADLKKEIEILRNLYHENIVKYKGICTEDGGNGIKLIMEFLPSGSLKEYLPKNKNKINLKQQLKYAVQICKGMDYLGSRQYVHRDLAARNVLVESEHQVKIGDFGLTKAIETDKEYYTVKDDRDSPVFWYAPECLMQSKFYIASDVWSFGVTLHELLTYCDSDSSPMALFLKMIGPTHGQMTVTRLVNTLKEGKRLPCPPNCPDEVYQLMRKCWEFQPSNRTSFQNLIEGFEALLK

Row | SMILES | IC50
1 | CN(c1cc2c(cn1)ncn2C)c1ccc(C2=CCN(C(=O)OC(C)(C)C)CC2)cc1OC(F)F [Compound 281, 4-{3-Difluoromethoxy-4-[methyl-(1-methyl-1H-imidazo[4,5-c]pyridin-6-yl)-amino]-phenyl}-3,6-dihydro-2H-pyridine-1-carboxylic acid tert-butyl ester] | 101 to 500 nM
2 | CCNC(=O)NCc1ccc(N(C)c2cc3c(cn2)ncn3C)c(CC)c1 [Compound 192, 1-Ethyl-3-(3-ethyl-4-(methyl(1-methyl-1H-imidazo[4,5-c]pyridin-6-yl)amino)benzyl)urea] | 0.01 to 100 nM
3 | CCc1ccccc1N(C)c1cc2c(cn1)ncn2C1CC1 [Compound 296, 1-cyclopropyl-N-(2-ethylphenyl)-N-methyl-1H-imidazo[4,5-c]pyridin-6-amine] | 501 to 1000 nM
4 | CCc1cc(C2CCN(C(=O)OC(C)(C)C)CC2)ccc1N(C)c1cc2c(cn1)ncn2C [Compound 180, tert-butyl 4-(3-ethyl-4-(methyl(1-methyl-1H-imidazo[4,5-c]pyridin-6-yl)amino)phenyl)piperidine-1-carboxylate] | 101 to 500 nM
5 | CCc1cc(-c2cn(C)cn2)ccc1N(C)c1cc2c(cn1)ncn2C [Compound 145, N-(2-ethyl-4-(1-methyl-1H-imidazol-4-yl)phenyl)-N,1-dimethyl-1H-imidazo[4,5-c]pyridin-6-amine] | 0.01 to 100 nM
6 | CN(c1cc2c(cn1)ncn2C)c1ccc(C2CCN(C(=O)OC(C)(C)C)CC2)cc1F [Compound 279, 4-{3-Fluoro-4-[methyl-(1-methyl-M-imidazo[4,5-c]pyridin-6-yl)-amino]-phenyl}-piperidine-1-carboxylic acid tert-butyl ester] | > 1000 nM
7 | CCc1cc(C(=O)NC2CN(S(C)(=O)=O)C2)ccc1N(C)c1cc2c(cn1)ncn2C [Compound 175, 3-Ethyl-4-(methyl(1-methyl-1H-imidazo[4,5-c]pyridin-6-yl)amino)-N-(1-(methylsulfonyl)azetidin-3-yl)benzamide] | 501 to 1000 nM
8 | CCc1cc(C2CCNCC2)ccc1N(C)c1cc2c(cn1)ncn2C [Compound 187, N-(2-Ethyl-4-(piperidin-4-yl)phenyl)-N,1-dimethyl-1H-imidazo[4,5-c]pyridin-6-amine] | 0.01 to 100 nM
9 | CN(c1cc2c(cn1)ncn2C)c1ccc(C2CCN(C(=O)OC(C)(C)C)CC2)cc1OC(F)F [Compound 286, 4-{3-Difluoromethoxy-4-[methyl-(1-methyl-1H-imidazo[4,5-c]pyridin-6-yl)-amino]-phenyl}-piperidine-1-carboxylic acid tert-butyl ester] | 101 to 500 nM
10 | CCc1cc(-c2n[nH]c(C3CC3)n2)ccc1N(C)c1cc2c(cn1)ncn2C [Compound 188, N-(4-(5-cyclopropyl-1H-1,2,4-triazol-3-yl)-2-ethylphenyl)-N,1-dimethyl-1H-imidazo[4,5-c]pyridin-6-amine] | 101 to 500 nM
11 | CCc1cc(C(=O)O)ccc1N(C)c1cc2c(cn1)ncn2C [Compound 185, 3-Ethyl-4-(methyl(1-methyl-1H-imidazo[4,5-c]pyridin-6-yl)amino)benzoic acid] | > 1000 nM
12 | CCc1cc(Cn2ccnc2C)ccc1N(C)c1cc2c(cn1)ncn2C [Compound 173, N-(2-Ethyl-4-((2-methyl-1H-imidazol-1-yl)methyl)phenyl)-N,1-dimethyl-1H-imidazo[4,5-c]pyridin-6-amine] | 0.01 to 100 nM
13 | CCc1cc(-c2cnc(N3CCOCC3)nc2)ccc1N(C)c1cc2c(cn1)ncn2C [Compound 184, N-(2-Ethyl-4-(2-morpholinopyrimidin-5-yl)phenyl)-N,1-dimethyl-1H-imidazo[4,5-d]pyridin-6-amine] | 101 to 500 nM
14 | Cn1cnc2cnc(N(CC3CC3)c3ccc(C#N)cc3F)cc21 [Compound 282, 4-[Cyclopropylmethyl-(1-methyl-1H-imidazo[4,5-c]pyridin-6-yl)-amino]-3-fluoro-benzonitrile] | > 1000 nM
15 | CC(=O)N1CC(c2ccc(N(C)c3cc4c(cn3)ncn4C)c(F)c2)C1 [Compound 278, 1-(3-{3-Fluoro-4-[methyl-(1-methyl-M-imidazo[4,5-c]pyridin-6-yl)-amino]-phenyl}-azetidin-1-yl)-ethanone] | 501 to 1000 nM
